13 compounds from ChEMBL document CHEMBL1153470, “Design, synthesis, and biological evaluation of 16-substituted 4-azasteroids as tissue-selective androgen receptor modulators (SARMs)” (J Med Chem, 2009) can be followed below.

The term half-life denotes the time needed for the level to fall by half in the phase considered. Lower therefore signals fast loss. Broadly, the clearance is the volume of plasma or blood freed of the substance per unit of time. A lower clearance goes with inefficient removal. Usually bioavailability stands for dose-corrected exposure relative to a reference, in per cent. Usually AUC stands for the area under the concentration-time curve, a measure of exposure. The term solubility denotes how much of the substance goes into solution per volume. Lower therefore signals a poorly soluble substance.

Converted amounts (≈) assume the structure as drawn.

The nature of series [1]: Half life in Beagle dog at 0.2 mg/kg, iv. The class given is ADME, organism-based, Canis lupus familiaris. Further details: dose 0.2 mg/kg, route intravenous. To be noted: in vivo.
The nature of series [2]: Clearance in Beagle dog at 0.2 mg/kg, iv. Further details: dose 0.2 mg/kg, route intravenous. To be noted: in vivo. The class given is ADME, organism-based, Canis lupus familiaris.
The nature of series [3]: Oral bioavailability in Beagle dog at 1 mg/kg. The class given is ADME, organism-based, Canis lupus familiaris. The note with it: in vivo.
The nature of series [4]: in vivo. The note with it: male, Sprague-Dawley, rat, plasma, sc, 3 mg/kg.
Series [5] can be described thus: in vivo. The note with it: female, Sprague-Dawley, rat, plasma, sc, 3 mg/kg.
Series [6] in a line: AUC in ovariectomized Sprague-Dawley rat at 10 mg/kg, sc. Further details: dose 10 mg/kg, route subcutaneous. The format is ADME, organism-based. To be noted: female, plasma.
A short description of series [7]: Aqueous solubility at pH 2. The class given is physicochemical.
The nature of series [8]: AUC in orchidectomized Sprague-Dawley rat at 30 mg/kg, sc. The arrangement: dose 30 mg/kg, route subcutaneous. The note with it: male, plasma. The class given is ADME, organism-based.
The nature of series [9]: AUC in orchidectomized Sprague-Dawley rat at 10 mg/kg, sc. To be noted: male, plasma. The arrangement: dose 10 mg/kg, route subcutaneous. The class given is ADME, organism-based.
Series [10] in a line: AUC in ovariectomized Sprague-Dawley rat at 1 mg/kg, sc. The note with it: female, plasma.

Take `COC[C@@H]1C[C@H]2[C@@H]3CC[C@H]4N(C)C(=O)C=C[C@]4(C)[C@H]3CC[C@]2(C)[C@H]1O`: the half-life in series [1] is 90 min. Moreover, in [2], the clearance turned out to be 11 mL/min/kg.
For `CN1C(=O)C=C[C@]2(C)[C@H]3CC[C@]4(C)[C@@H](O)CC[C@H]4[C@@H]3CC[C@@H]12` the same measures were 42 min and 32.3 mL/min/kg.
Turning to `CN1C(=O)C=C[C@]2(C)[C@H]3CC[C@]4(C)[C@@H](O)/C(=C/c5cccnc5)C[C@H]4[C@@H]3CC[C@@H]12`, the half-life in series [1] was 1030 min. The compound further gave a bioavailability in [3] of 21%. This compound also came in with a clearance in [2] of 5 mL/min/kg.
As to `C[C@]12CCC(=O)C[C@@H]1CC[C@@H]1[C@@H]2CC[C@]2(C)[C@@H](O)CC[C@@H]12` [STANOLONE], the results for the AUC in “in vivo [4]” and in “in vivo [5]” were 0.08 µM·h and 0.02 µM·h, respectively.
Consider `CN1C(=O)C=C[C@]2(C)[C@H]3CC[C@]4(C)[C@@H](O)/C(=C/c5cncnc5)C[C@H]4[C@@H]3CC[C@@H]12`, for which the AUC in [6] was found to be 17 µM·h; in series [8], 16.2 µM·h; in series [9] it was 4.3 µM·h. This compound had a half-life in [1] of 138 min. The solubility in series [7] was found to be 570 µg/mL (≈ 1450 µM). In [3], this compound had a bioavailability of 51%. In addition, the clearance in series [2] amounted to 15.3 mL/min/kg.
`CN1C(=O)C=C[C@]2(C)[C@H]3CC[C@]4(C)[C@@H](O)[C@H](Cc5cccc(F)c5)C[C@H]4[C@@H]3CC[C@@H]12`: the half-life in series [1] was 180 min. This compound registered a clearance in series [2] of 22 mL/min/kg.
In turn, `CN1C(=O)C=C[C@]2(C)[C@H]3CC[C@]4(C)[C@@H](O)/C(=C/c5cccc(F)c5)C[C@H]4[C@@H]3CC[C@@H]12` showed a half-life in series [1] of 294 min. This compound also returned a clearance in series [2] of 15.2 mL/min/kg.
For `C[C@@H]1C[C@H]2[C@@H]3CC[C@H]4N(C)C(=O)C=C[C@]4(C)[C@H]3CC[C@]2(C)[C@H]1O` the same measures were 60 min and 20.2 mL/min/kg.
For `CNc1ncc(/C=C2\C[C@H]3[C@@H]4CC[C@H]5N(C)C(=O)C=C[C@]5(C)[C@H]4CC[C@]3(C)[C@H]2O)cn1`, the half-life in [1] was 654 min. This compound also registered a clearance in series [2] of 0.8 mL/min/kg.
Regarding `COc1ncc(/C=C2\C[C@H]3[C@@H]4CC[C@H]5N(C)C(=O)C=C[C@]5(C)[C@H]4CC[C@]3(C)[C@H]2O)cn1`, the half-life in series [1] is 762 min. In series [2], this compound came in with a clearance of 4.6 mL/min/kg.
For the compound `C/C=C1\C[C@H]2[C@@H]3CC[C@H]4N(C)C(=O)C=C[C@]4(C)[C@H]3CC[C@]2(C)[C@H]1O`, in series [1], the half-life is 60 min. In [2], the clearance was 42.8 mL/min/kg.
`Cc1ncc(/C=C2\C[C@H]3[C@@H]4CC[C@H]5N(C)C(=O)C=C[C@]5(C)[C@H]4CC[C@]3(C)[C@H]2O)cn1`: the half-life in series [1] is 1120 min. The compound also showed an AUC in [10] of 17 µM·h. This compound also gave a solubility in [7] of 230 µg/mL (≈ 564 µM). This compound had a clearance in series [2] of 1.5 mL/min/kg.
For the compound `CN1C(=O)C=C[C@]2(C)[C@H]3CC[C@]4(C)[C@@H](O)/C(=C/c5cc(F)cc(F)c5)C[C@H]4[C@@H]3CC[C@@H]12`, in [1], the half-life was 546 min. In series [2], this compound returned a clearance of 6.8 mL/min/kg.
